Results on 36 molecules are retold here after US20070054916A1, “Aryl nitrogen-containing bicyclic compounds and methods of use” (Amgen Inc., priority 2004, published 2007).

The IC50 is the concentration at which inhibition is half-maximal.

This test deals with production of TNF by monocytes activated with bacterial lipopolysaccharide (LPS). As to the kind of experiment: Lipopolysaccharide-activated monocyte TNF production assay. The note with it: Homo sapiens, read-out: IC50 values in the monocyte assay (LPS induced TNF release). The test is classed as cell-based. The gist of the method: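 Adherent human PBMC-derived monocytes (~70%) in DMEM/2% FCS were pre-incubated 60 min with nine two-fold compound dilutions, then stimulated with E. coli K532 LPS (added as 30 ng/ml solution) for 4 h at 37 °C. Supernatant TNF-α was measured by sandwich ELISA. IC50 was taken from a polynomial fit of TNF versus compound concentration.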
Consider `Cc1ccc(C(=O)Nc2cccc(C(F)(F)F)c2F)cc1-c1ccc2nc(NC3CCN(C)CC3)ncc2c1` [Example 25], for which the IC50 is at most 25 µM.
For the molecule `Nc1ncc2cc(-c3ccc(F)c(NC(=O)c4cc(F)cc(C(F)(F)F)c4)c3)ccc2n1` [Example 489, N-(5-(2-amino-6-quinazolinyl)-2-fluorophenyl)-3-fluoro-5-(trifluoromethyl)benzamide], the IC50 is at most 25 µM.
Consider `Cc1ccc(C(=O)Nc2ncccc2O)cc1-c1ccc2nc(N)ncc2c1` [Example 361, 3-(2-amino-6-quinazolinyl)-N-(3-hydroxy-2-pyridinyl)-4-methylbenzamide], for which the IC50 was at most 25 µM.
`Cc1cc(F)c(C(=O)Nc2cccc(C(F)(F)F)c2)cc1-c1ccc2nc(NC3CC3)ncc2c1` [Example 39, 5-(2-(cyclopropylamino)-6-quinazolinyl)-2-fluoro-4-methyl-N-(3-(trifluoromethyl)phenyl)benzamide]: the IC50 was at most 25 µM.
Then `Cc1cc(NC(=O)c2ccc(C)c(-c3ccc4nc(N)ncc4c3)c2)ns1` [Example 344, 3-(2-amino-6-quinazolinyl)-4-methyl-N-(5-methyl-3-isothiazolyl) benzamide], with at most 25 µM.
Turning to `CCN(CC)CCOc1ccc(NC(=O)c2ccc(C)c(-c3ccc4nc(N)ncc4c3)c2)c(OC)c1` [Example 70, 3-(2-amino-6-quinazolinyl)-N-(4-((2-(diethylamino)ethyl)oxy)-2-(methyloxy)phenyl)-4-methylbenzamide], the half-inhibitory concentration (IC50) was at most 25 µM.
Consider `Cc1ccc(C(=O)Nc2ccc(OC3CCN(C)CC3)c(C(F)(F)F)c2)cc1-c1ccc2nc(N)ncc2c1` [Example 123, 3-(2-amino-6-quinazolinyl)-4-methyl-N-(4-((1-methyl-4-piperidinyl)oxy)-3-(trifluoromethyl)phenyl)benzamide], for which the IC50 is at most 25 µM.
For the molecule `Cc1ccc(C(=O)Nc2cc(C(F)(F)F)ccc2C(C)(C)CN(C)C)cc1-c1ccc2nc(N)ncc2c1` [Example 83, 3-(2-amino-6-quinazolinyl)-N-(2-(2-(dimethylamino)-1,1-dimethylethyl)-5-(trifluoromethyl)phenyl)-4-methylbenzamide], the IC50 is at most 25 µM.
For the molecule `Nc1ncc2cc(-c3ccc(F)c(NC(=O)c4ccccc4)c3)ccc2n1` [Example 485, N-(5-(2-amino-6-quinazolinyl)-2-fluorophenyl)benzamide], the IC50 was at most 25 µM.
With `Cc1ccc(C(=O)Nc2ccc(N3CCCC3)c(C(=O)N3CCCC3)c2F)cc1-c1ccc2nc(N)ncc2c1` [Example 428, 3-(2-amino-6-quinazolinyl)-N-(2-fluoro-4-(1-pyrrolidinyl)-3-(1-pyrrolidinylcarbonyl)phenyl)-4-methylbenzamide], the IC50 was at most 25 µM.
Turning to `CN(C)CCOc1ccc(-c2ccc3nc(N)ncc3c2)cc1C(=O)Nc1cccc(C(F)(F)F)c1` [Example 57, 5-(2-amino-6-quinazolinyl)-2-((2-(dimethylamino)ethyl)oxy)-N-(3-(trifluoromethyl)phenyl)benzamide], the IC50 is at most 25 µM.
In the case of `CN1CCN(c2ccc(C(F)(F)F)cc2C(=O)Nc2cc(-c3ccc4nc(N)ncc4c3)ccc2F)CC1` [Example 434, N-(5-(2-aminoquinazolin-6-yl)-2-fluorophenyl)-2-(4-methylpiperazin-1-yl)-5-(trifluoromethyl)benzamide], the IC50 was at most 25 µM.
Then `Cc1ccc(C(=O)Nc2cc(C(F)(F)F)ccc2N2CCCC2)cc1-c1ccc2nc(N)ncc2c1` [Example 80, 3-(2-amino-6-quinazolinyl)-4-methyl-N-(2-(1-pyrrolidinyl)-5-(trifluoromethyl)phenyl)benzamide], with at most 25 µM; and `Cc1ccc(C(=O)Nc2ccc(C(F)(F)F)cc2N(C)CCCN(C)C)cc1-c1ccc2nc(N)ncc2c1` [Example 118, 3-(2-amino-6-quinazolinyl)-N-(2-((3-(dimethylamino)propyl)(methyl)amino)-4-(trifluoromethyl)phenyl)-4-methylbenzamide], with at most 25 µM; and `Nc1ncc2cc(-c3ccc(F)c(NC(=O)c4cccc(Cl)c4Cl)c3)ccc2n1` [Example 487, N-(5-(2-amino-6-quinazolinyl)-2-fluorophenyl)-2,3-dichlorobenzamide], with at most 25 µM.
For `Cc1ccc(C(=O)Nc2ccc(F)c(C(F)(F)F)c2)cc1-c1ccc2nc(N)ncc2c1` [Example 124, 3-(2-amino-6-quinazolinyl)-N-(4-fluoro-3-(trifluoromethyl)phenyl)-4-methylbenzamide], the half-maximal inhibitory concentration (IC50) is at most 25 µM.
For `Nc1ncc2cc(-c3cc(C(=O)Nc4cccc(C(F)(F)F)c4F)ccc3F)ccc2n1` [Example 136, 3-(2-amino-6-quinazolinyl)-4-fluoro-N-(2-fluoro-3-(trifluoromethyl)phenyl)benzamide], the IC50 was at most 25 µM.
Then `Cc1cccc(C)c1-c1ccc2nc(NCCN3CCOCC3)ncc2c1` [Example 534, 6-(2,6-dimethylphenyl)-N-(2-morpholinoethyl)quinazolin-2-amine], with at most 25 µM; and `Cc1cc(F)c(C(=O)Nc2cccc(C(F)(F)F)c2)cc1-c1ccc2nc(N)ncc2c1` [Example 126, 5-(2-amino-6-quinazolinyl)-2-fluoro-4-methyl-N-(3-(trifluoromethyl)phenyl)benzamide], with at most 25 µM; and `Cc1ccc(C(=O)Nc2cc(C(F)(F)F)ccc2N2CCS(=O)(=O)CC2)cc1-c1ccc2nc(N)ncc2c1` [Example 228, 3-(2-amino-6-quinazolinyl)-N-(2-(1,1-dioxido-4-thiomorpholinyl)-5-(trifluoromethyl)phenyl)-4-methylbenzamide], with at most 25 µM.
Then `COc1cccc(NC(=O)c2ccc(C)c(-c3ccc4nc(N)ncc4c3)c2)c1OC` [Example 283, 3-(2-amino-6-quinazolinyl)-N-(5,6-bis(methyloxy)-phenyl)-4-methylbenzamide], with at most 25 µM.
With `Cc1ccc(NC(=O)c2ccccc2)cc1-c1ccc2nc(NC(=O)c3ccccc3)ncc2c1` [Example 483, N-(6-(2-methyl-5-((phenylcarbonyl)amino)phenyl)-2-quinazolinyl)benzamide], the IC50 is at most 25 µM.
Consider `Cc1ccc(NC(=O)c2cc(C(F)(F)F)ccc2C(F)(F)F)cc1-c1ccc2nc(N)ncc2c1` [Example 430, N-(3-(2-amino-6-quinazolinyl)-4-methylphenyl)-2,5-bis(trifluoromethyl)benzamide], for which the IC50 is at most 25 µM.
Turning to `Cc1cc(C)c(-c2ccc3nc(N)ncc3c2)c(C)c1NC(=O)c1cccc(C(F)(F)F)c1` [Example 224, N-(3-(2-amino-6-quinazolinyl)-2,4,6-trimethylphenyl)-3-(trifluoromethyl) benzamide], the IC50 is at most 25 µM.
For the molecule `Cc1ccc(C(=O)Nc2cc(C(=O)NCCN3CCOCC3)cc(C(F)(F)F)c2)cc1-c1ccc2nc(N)ncc2c1` [Example 6], the IC50 is at most 25 µM.
With `Cc1ccc(C(=O)Nc2cccc(C(F)(F)F)c2C)cc1-c1ccc2nc(NCCCN3CCOCC3)ncc2c1` [Example 32, 4-methyl-N-(2-methyl-3-(trifluoromethyl)phenyl)-3-(2-((3-(4-morpholinyl)propyl)amino)-6-quinazolinyl) benzamide], the IC50 was at most 25 µM.
For `CC(C)(C)c1ccc(C(=O)Nc2cc(-c3ccc4nc(N)ncc4c3)ccc2F)cc1` [Example 488, N-(5-(2-amino-6-quinazolinyl)-2-fluorophenyl)-4-(1,1-dimethylethyl)benzamide] the value was at most 25 µM; for `Cc1ccc(C(=O)Nc2c(N(C)CCCN(C)C)ccc(C(F)(F)F)c2C)cc1-c1ccc2nc(N)ncc2c1` [Example 117, 3-(2-amino-6-quinazolinyl)-N-(6-((3-(dimethylamino)propyl)(methyl)amino)-2-methyl-3-(trifluoromethyl)phenyl)-4-methylbenzamide], at most 25 µM; for `Nc1ncc2cc(-c3cc(C(=O)Nc4cc(C(F)(F)F)ccc4N4CCCCC4)ccc3Cl)ccc2n1` [Example 156, 3-(2-amino-6-quinazolinyl)-4-chloro-N-(2-(1-piperidinyl)-5-(trifluoromethyl)phenyl)benzamide], at most 25 µM.
`Cc1ccc(C(=O)Nc2cccc(C(F)(F)F)c2C)cc1-c1ccc2nc(NC3CC3)ncc2c1` [Example 37, 3-(2-(cyclopropylamino)-6-quinazolinyl)-4-methyl-N-(2-methyl-3-(trifluoromethyl)phenyl)benzamide]: the IC50 is at most 25 µM.
Then `Cc1ccc(C(=O)Nc2ncccc2OCc2ccccc2)cc1-c1ccc2nc(N)ncc2c1` [Example 358, 3-(2-amino-6-quinazolinyl)-4-methyl-N-(3-((phenylmethyl)oxy)-2-pyridinyl)benzamide], with at most 25 µM; and `Cc1ccc(C(=O)NCCc2cccnc2)cc1-c1ccc2nc(N)ncc2c1` [Example 427, 3-(2-amino-6-quinazolinyl)-4-methyl-N-(2-(3-pyridinyl)ethyl)b enzamide], with at most 25 µM; and `Cc1ccc(C(=O)Nc2nnc(C(F)(F)F)s2)cc1-c1ccc2nc(N)ncc2c1` [Example 343, 3-(2-amino-6-quinazolinyl)-4-methyl-N-(5-(trifluoromethyl)-1,3,4-thiadiazol-2-yl)benzamide], with at most 25 µM.
On to `Cc1ccc(C(=O)Nc2cccc(C(F)(F)F)c2C)cc1-c1ccc2nc(N)ncc2c1` [Example 369, 3-(2-amino-6-quinazolinyl)-4-methyl-N-(2-methyl-3-(trifluoromethyl)phenyl)benzamide], for which the IC50 is at most 25 µM.
For `Cc1ccc(C(=O)Nc2cc(C(F)(F)F)ccc2N2CC[C@@H](N(C)C)C2)cc1-c1ccc2nc(N)ncc2c1` [Example 75, 3-(2-amino-6-quinazolinyl)-N-(2-((3R)-3-(dimethylamino)-1-pyrrolidinyl)-5-(trifluoromethyl)phenyl)-4-methylbenzamide], the IC50 was at most 25 µM.
As to `Nc1ncc2cc(-c3cccc(C(=O)Nc4cc(C(F)(F)F)ccc4N4CCCCC4)c3)ccc2n1` [Example 54, 3-(2-amino-6-quinazolinyl)-N-(2-(1-piperidinyl)-5-(trifluoromethyl)phenyl)benzamide], the IC50 is at most 25 µM.
